# According to ChEMBL document CHEMBL1150729, “Constituents of Paramichelia baillonii: a new antitumor germacranolide alkaloid” (1987):
# Activity calls are given as the source filed them. No cut-off for these calls is given here.
# Legend:
# Assay type in all cases: functional
# [1] = (§1) Cytotoxicity against human 9KB cells; settings: read-out: ED50 (the source's name)
# [2] = Cytotoxicity against human Laryngeal epidermoid carcinoma cells; settings: read-out: ED50 (the source's name)
# 9KB = experiment: as §1
# KB = experiment: Cytotoxicity against human KB cells; settings: read-out: ED50 (the source's name)
structure (smiles),measurement,setting,value
C=C1C(=O)O[C@@H]2C3O[C@]3(C)CC/C=C(\C)CC[C@@H]12 (stereo not given in full),EC50,[1],0.45 µg/mL
same,EC50,[2],0.76 µg/mL
O=C1c2ccccc2-c2c3c(cc4ccnc1c24)OCO3 [LIRIODENINE],EC50,[1],1.6 µg/mL
C/C1=C\CC[C@@]2(C)O[C@H]2[C@H]2OC(=O)[C@@H](C)[C@@H]2CC1,Activity,9KB,inactive
C/C1=C\CC[C@@]2(C)O[C@H]2[C@H]2OC(=O)[C@@H](CNC[C@@H]3C(=O)O[C@H]4[C@H]3CC/C(C)=C/CC[C@@]3(C)O[C@@H]43)[C@@H]2CC1,EC50,KB,0.6 µg/mL
